What was measured:
Type in all cases: biochemical
HsDHFR (human DHFR) [1] = molecular target: T1, HsDHFR (human DHFR) (Homo sapiens, UniProt P00374); assay: DHFR inhibition assay
T1 sequence (P00374 1-187): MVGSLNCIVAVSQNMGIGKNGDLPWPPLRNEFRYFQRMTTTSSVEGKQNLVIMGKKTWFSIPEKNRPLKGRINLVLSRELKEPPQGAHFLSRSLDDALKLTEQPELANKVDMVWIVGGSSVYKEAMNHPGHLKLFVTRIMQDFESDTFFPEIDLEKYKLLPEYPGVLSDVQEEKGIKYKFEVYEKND

[2] = molecular target: T2, TbDHFR (T. brucei dihydrofolate reductase) (Trypanosoma brucei, UniProt Q27783); assay: DHFR inhibition assay
T2 sequence (Q27783 whole entry): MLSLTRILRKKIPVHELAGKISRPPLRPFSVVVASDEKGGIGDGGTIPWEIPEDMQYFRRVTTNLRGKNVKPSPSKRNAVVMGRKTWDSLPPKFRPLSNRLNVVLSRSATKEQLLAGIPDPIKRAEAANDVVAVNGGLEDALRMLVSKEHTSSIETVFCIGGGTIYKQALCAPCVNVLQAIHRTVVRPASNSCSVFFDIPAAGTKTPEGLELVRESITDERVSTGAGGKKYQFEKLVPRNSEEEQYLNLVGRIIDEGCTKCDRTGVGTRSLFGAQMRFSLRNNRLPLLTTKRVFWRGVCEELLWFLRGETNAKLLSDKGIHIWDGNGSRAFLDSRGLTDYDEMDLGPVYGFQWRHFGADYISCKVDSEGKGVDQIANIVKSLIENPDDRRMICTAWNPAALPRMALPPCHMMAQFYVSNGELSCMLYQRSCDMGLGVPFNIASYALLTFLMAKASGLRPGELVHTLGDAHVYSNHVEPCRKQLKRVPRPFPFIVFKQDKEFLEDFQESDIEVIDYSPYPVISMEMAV

HsDHFR (human DHFR) [3] = molecular target: T1, HsDHFR (human DHFR); assay: DHFR inhibition assay; settings: unreliable: sample contaminated with ~25% of compound 33
[4] = molecular target: T2, TbDHFR (T. brucei dihydrofolate reductase); assay: DHFR inhibition assay; settings: unreliable: sample contaminated with ~25% of compound 33
[5] = molecular target: T3, endogenous PTR1 in clarified T. brucei lysate (Trypanosoma brucei, UniProt O76290); assay: HPLC-based PTR1 assay
T3 sequence (O76290 1-268): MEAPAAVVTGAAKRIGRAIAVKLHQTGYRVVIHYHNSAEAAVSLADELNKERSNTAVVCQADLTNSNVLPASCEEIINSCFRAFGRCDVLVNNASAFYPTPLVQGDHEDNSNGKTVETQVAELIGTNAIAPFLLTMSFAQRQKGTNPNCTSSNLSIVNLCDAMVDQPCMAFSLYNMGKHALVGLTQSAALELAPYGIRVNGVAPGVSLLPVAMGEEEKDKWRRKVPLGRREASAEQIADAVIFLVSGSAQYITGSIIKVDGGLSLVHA

[6] = molecular target: T4, TbPTR1 (T. brucei pteridine reductase 1) (Trypanosoma brucei, UniProt O76290); assay: HPLC-based PTR1 assay
T4 sequence (O76290 1-268): T3 sequence (O76290 1-268)

Row | Compound | IC50 (HsDHFR (human DHFR) [1]) [µM] | IC50 [2] [µM] | HsDHFR IC50 (HsDHFR (human DHFR) [3]) [µM] | TbDHFR IC50 [4] [µM] | IC50 [5] [nM] | IC50 [6] [nM]
1 | CCCOc1cccc2c1nc(N)n2Cc1ccc(Cl)c(Cl)c1 [compound 25] | > 50 | > 30 | – | – | – | –
2 | Nc1nc2c(OCc3ccccc3)cccc2n1Cc1ccc(Cl)c(Cl)c1 [compound 26] | > 50 | > 50 | – | – | – | –
3 | Nc1nc2cccc(OCc3ccccc3)c2n1Cc1ccc(Cl)c(Cl)c1 [compound 31] | > 50 | > 50 | – | – | – | –
4 | COc1cccc2c1nc(N)n2Cc1ccc(Cl)c(Cl)c1 [compound 28] | – | – | > 50 | > 30 | – | –
5 | Nc1nc2c(Cl)cccc2n1Cc1ccc(Cl)c(Cl)c1 [compound 24] | > 50 | > 30 | – | – | – | –
6 | Nc1nc2cccc(-c3ccccc3)c2n1Cc1ccc(Cl)c(Cl)c1 [compound 32] | > 50 | > 50 | – | – | 0.88 ± 0.13 | 0.99 ± 0.13

Results, then the compound that gave them:

Row | IC50 (HsDHFR (human DHFR) [1]) [µM] | IC50 [2] [µM] | HsDHFR IC50 (HsDHFR (human DHFR) [3]) [µM] | TbDHFR IC50 [4] [µM] | IC50 [5] [nM] | IC50 [6] [nM] | Compound
7 | > 50 | > 30 | – | – | – | – | Nc1nc2cccc(Cl)c2n1Cc1ccc(Cl)c(Cl)c1 [compound 29]
8 | > 30 | > 30 | – | – | – | – | Nc1nc2c(-c3ccccc3)cccc2n1Cc1ccc(Cl)c(Cl)c1 [compound 27]
9 | > 50 | > 30 | – | – | – | – | CCCOc1cccc2nc(N)n(Cc3ccc(Cl)c(Cl)c3)c12 [compound 30]
10 | > 50 | > 50 | – | – | – | – | Nc1nc2ccccc2n1Cc1ccc(Cl)c(Cl)c1 [compound 11]
11 | > 50 | > 30 | – | – | – | – | COc1cccc2nc(N)n(Cc3ccc(Cl)c(Cl)c3)c12 [compound 33]
12 | > 30 | > 30 | – | – | – | – | Cc1cc2nc(N)n(Cc3ccc(Cl)c(Cl)c3)c2cc1C [compound 34]

— paper PMC3047710 (Chemmedchem, 2010)
